Data taken from patent publication US9738634B2, “Heterocyclic amide compound and herbicide” (SYNGENTA PARTICIPATIONS AG, priority 2013, dated 2017).

Experiments:
Assay type in all cases: in vivo
Conditions in all cases: treatment dosage 320 g/ha
common wind-grass [1] = test: Test Example 4: weedkilling efficacy by foliar treatment; J: common wind-grass
Method in brief: (§1)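 Seeds are spot-sown into sterilized diluvial soil and covered with about 1.5 cm of soil. After 14 days' greenhouse growth at 25 to 30° C, plants are sprayed on stems and leaves with diluted emulsion at the stated g/ha rate, then scored at 3 weeks.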

crabgrass [2] = test: Test Example 3: weedkilling efficacy through soil treatment; D: crabgrass
Method in brief: (§2)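 Crop and weed responses were judged three weeks after a uniform surface spray of the water-diluted emulsion at the given g/ha rate. Seeds sat beneath about 1.5 cm of sterilized diluvial soil, and boxes stood in a greenhouse at 25 to 30° C.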

oval-leafed pondweed [3] = test: Test Example 2: weedkilling efficacy, growth period weed treatment in the submerged state; C: oval-leafed pondweed
Method in brief: (§3)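 Seedlings at 1-2 leaves in 4 cm-deep submerged alluvial soil received emulsion formulations on the water surface, dosed per hectare; effects were judged 3 weeks on.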

redroot pigweed [4] = test: Test Example 3: weedkilling efficacy through soil treatment; L: redroot pigweed
Method in brief: as §2

wild oat [5] = test: Test Example 4: weedkilling efficacy by foliar treatment; G: wild oat
Method in brief: as §1

common wind-grass [6] = test: Test Example 3: weedkilling efficacy through soil treatment; J: common wind-grass
Method in brief: as §2

rapeseed [7] = test: Test Example 3: soil treatment, effect on crop; g: rapeseed
Method in brief: as §2

barnyard grass [8] = test: Test Example 1: weedkilling efficacy, preemergent weed treatment in the submerged state; A: barnyard grass
Method in brief: (§4)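 Pre-emergence paddy test: weed seeds sown in submerged alluvial soil (4 cm water), 2.5-leaf rice transplanted, water-diluted emulsion applied to water surface at sowing at stated g/ha. Scored at 3 weeks, greenhouse 25–30 °C.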

crabgrass [9] = test: Test Example 4: weedkilling efficacy by foliar treatment; D: crabgrass
Method in brief: as §1

directly sown rice [10] = test: Test Example 4: foliar treatment, effect on crop; b: directly sown rice
Method in brief: as §1

wheat [11] = test: Test Example 3: soil treatment, effect on crop; e: wheat
Method in brief: as §2

redroot pigweed [12] = test: Test Example 4: weedkilling efficacy by foliar treatment; L: redroot pigweed
Method in brief: as §1

Indian mallow [13] = test: Test Example 3: weedkilling efficacy through soil treatment; K: Indian mallow
Method in brief: as §2

chickweed = test: Test Example 4: weedkilling efficacy by foliar treatment; N: chickweed
Method in brief: as §1

birds-eye speedwell = test: Test Example 3: weedkilling efficacy through soil treatment; p: birds-eye speedwell
Method in brief: as §2

transplanted rice = test: Test Example 1: preemergent weed treatment in the submerged state, effect on crop; a: transplanted rice
Method in brief: as §4

wheat [14] = test: Test Example 4: foliar treatment, effect on crop; e: wheat
Method in brief: as §1

Italian ryegrass [15] = test: Test Example 3: weedkilling efficacy through soil treatment; I: Italian ryegrass
Method in brief: as §2

black-grass [16] = test: Test Example 3: weedkilling efficacy through soil treatment; H: black-grass
Method in brief: as §2

rapeseed [17] = test: Test Example 4: foliar treatment, effect on crop; g: rapeseed
Method in brief: as §1

soybean [18] = test: Test Example 3: soil treatment, effect on crop; d: soybean
Method in brief: as §2

barnyard grass [19] = test: Test Example 2: weedkilling efficacy, growth period weed treatment in the submerged state; A: barnyard grass
Method in brief: as §3

corn [20] = test: Test Example 4: foliar treatment, effect on crop; c: corn
Method in brief: as §1

barnyard grass [21] = test: Test Example 4: weedkilling efficacy by foliar treatment; F: barnyard grass
Description: Testing of Weedkilling Efficacy by Foliar Treatment
Sterilized diluvial soil was introduced into 21 cm long, 13 cm wide, 7 cm deep plastic boxes, and seeds of crabgrass, green foxtail, barnyard grass, wild oat, black-grass, Italian ryegrass, common wind-grass, Indian mallow, redroot pigweed, fig-leafed goosefoot, chickweed, catchweed, birds-eye speedwell, corn, soybean, rice, wheat, beet and rapeseed were each spot-sown, and covered with about 1.5 cm of soil, then the plants were grown in a greenhouse at 25 to 30° C.
After they had grown for 14 days, emulsions of compounds of the present invention prepared according to compounding example 2 were diluted with water to give the specified dosages, and applied uniformly onto the stem and leaf parts with a small sprayer. 3 weeks after the pesticide treatment the effect on each type of plant was investigated on the basis of the assessment criteria of test example 1.
A: barnyard grass, B: bulrush, C: oval-leafed pondweed, D: crabgrass, E: green foxtail, F: barnyard grass, G: wild oat, H: black-grass, I: Italian ryegrass, J: common wind-grass, K: Indian mallow, L: redroot pigweed, M: fig-leafed goosefoot, N: chickweed, O: catchweed, p: birds-eye speedwell, a: transplanted rice, b: directly sown rice, c: corn, d: soybean, e: wheat, f: beet, g: rapeseed
Further, pesticide dosage (g/ha) indicates the concentration regulated such that treatment was with only the stated number of grams (g), when calculated per hectare (ha).

oval-leafed pondweed [22] = test: Test Example 1: weedkilling efficacy, preemergent weed treatment in the submerged state; C: oval-leafed pondweed
Method in brief: as §4

wild oat [23] = test: Test Example 3: weedkilling efficacy through soil treatment; G: wild oat
Method in brief: as §2

fig-leafed goosefoot = test: Test Example 4: weedkilling efficacy by foliar treatment; M: fig-leafed goosefoot
Method in brief: as §1

bulrush [24] = test: Test Example 2: weedkilling efficacy, growth period weed treatment in the submerged state; B: bulrush
Method in brief: as §3

corn [25] = test: Test Example 3: soil treatment, effect on crop; c: corn
Method in brief: as §2

beet [26] = test: Test Example 3: soil treatment, effect on crop; f: beet
Method in brief: as §2

Indian mallow [27] = test: Test Example 4: weedkilling efficacy by foliar treatment; K: Indian mallow
Method in brief: as §1

catchweed [28] = test: Test Example 4: weedkilling efficacy by foliar treatment; O: catchweed
Method in brief: as §1

catchweed [29] = test: Test Example 3: weedkilling efficacy through soil treatment; O: catchweed
Method in brief: as §2

bulrush [30] = test: Test Example 1: weedkilling efficacy, preemergent weed treatment in the submerged state; B: bulrush
Method in brief: as §4

green foxtail [31] = test: Test Example 4: weedkilling efficacy by foliar treatment; E: green foxtail
Method in brief: as §1

Italian ryegrass [32] = test: Test Example 4: weedkilling efficacy by foliar treatment; I: Italian ryegrass
Method in brief: as §1

soybean [33] = test: Test Example 4: foliar treatment, effect on crop; d: soybean
Method in brief: as §1

beet [34] = test: Test Example 4: foliar treatment, effect on crop; f: beet
Method in brief: as §1

green foxtail [35] = test: Test Example 3: weedkilling efficacy through soil treatment; E: green foxtail
Method in brief: as §2

directly sown rice [36] = test: Test Example 3: soil treatment, effect on crop; b: directly sown rice
Method in brief: as §2

barnyard grass [37] = test: Test Example 3: weedkilling efficacy through soil treatment; F: barnyard grass
Method in brief: as §2

black-grass [38] = test: Test Example 4: weedkilling efficacy by foliar treatment; H: black-grass
Method in brief: as §1

CC1=C(c2ccccc2)C(=O)N(C(C)(C)C(=O)Nc2cc(Br)cc(F)n2)CO1 [B-2-35]
J (common wind-grass) weedkilling efficacy grade (common wind-grass [1]): 4 (weed kill ratio 70% or more, less than 90%) | D (crabgrass) weedkilling efficacy grade (crabgrass [2]): 5 (weed kill ratio 90% or more, (practically complete withering)) | C (oval-leafed pondweed) weedkilling efficacy grade (oval-leafed pondweed [3]): 5 (weed kill ratio 90% or more, (practically complete withering)) | L (redroot pigweed) weedkilling efficacy grade (redroot pigweed [4]): 3 (weed kill ratio 40% or more, less than 70%) | G (wild oat) weedkilling efficacy grade (wild oat [5]): 2 (weed kill ratio 20% or more, less than 40%) | J (common wind-grass) weedkilling efficacy grade (common wind-grass [6]): 5 (weed kill ratio 90% or more, (practically complete withering)) | g (rapeseed) effect on crop grade (rapeseed [7]): 4 (weed kill ratio 70% or more, less than 90%) | A (barnyard grass) weedkilling efficacy grade (barnyard grass [8]): 5 (weed kill ratio 90% or more, (practically complete withering)) | D (crabgrass) weedkilling efficacy grade (crabgrass [9]): 5 (weed kill ratio 90% or more, (practically complete withering)) | b (directly sown rice) effect on crop grade (directly sown rice [10]): 4 (weed kill ratio 70% or more, less than 90%) | e (wheat) effect on crop grade (wheat [11]): 1 (weed kill ratio 5% or more, less than 20%) | L (redroot pigweed) weedkilling efficacy grade (redroot pigweed [12]): 3 (weed kill ratio 40% or more, less than 70%) | K (Indian mallow) weedkilling efficacy grade (Indian mallow [13]): 4 (weed kill ratio 70% or more, less than 90%) | N (chickweed) weedkilling efficacy grade (chickweed): 3 (weed kill ratio 40% or more, less than 70%) | P (birds-eye speedwell) weedkilling efficacy grade (birds-eye speedwell): 4 (weed kill ratio 70% or more, less than 90%) | a (transplanted rice) effect on crop grade (transplanted rice): 0 (weed kill ratio 5% or less (practically no effect)) | e (wheat) effect on crop grade (wheat [14]): 0 (weed kill ratio 5% or less (practically no effect)) | I (Italian ryegrass) weedkilling efficacy grade (Italian ryegrass [15]): 5 (weed kill ratio 90% or more, (practically complete withering)) | H (black-grass) weedkilling efficacy grade (black-grass [16]): 5 (weed kill ratio 90% or more, (practically complete withering)) | g (rapeseed) effect on crop grade (rapeseed [17]): 4 (weed kill ratio 70% or more, less than 90%) | d (soybean) effect on crop grade (soybean [18]): 0 (weed kill ratio 5% or less (practically no effect)) | A (barnyard grass) weedkilling efficacy grade (barnyard grass [19]): 5 (weed kill ratio 90% or more, (practically complete withering)) | c (corn) effect on crop grade (corn [20]): 1 (weed kill ratio 5% or more, less than 20%) | F (barnyard grass) weedkilling efficacy grade (barnyard grass [21]): 5 (weed kill ratio 90% or more, (practically complete withering)) | C (oval-leafed pondweed) weedkilling efficacy grade (oval-leafed pondweed [22]): 5 (weed kill ratio 90% or more, (practically complete withering)) | G (wild oat) weedkilling efficacy grade (wild oat [23]): 4 (weed kill ratio 70% or more, less than 90%) | M (fig-leafed goosefoot) weedkilling efficacy grade (fig-leafed goosefoot): 4 (weed kill ratio 70% or more, less than 90%) | B (bulrush) weedkilling efficacy grade (bulrush [24]): 5 (weed kill ratio 90% or more, (practically complete withering)) | c (corn) effect on crop grade (corn [25]): 1 (weed kill ratio 5% or more, less than 20%) | f (beet) effect on crop grade (beet [26]): 4 (weed kill ratio 70% or more, less than 90%) | K (Indian mallow) weedkilling efficacy grade (Indian mallow [27]): 3 (weed kill ratio 40% or more, less than 70%) | O (catchweed) weedkilling efficacy grade (catchweed [28]): 5 (weed kill ratio 90% or more, (practically complete withering)) | O (catchweed) weedkilling efficacy grade (catchweed [29]): 0 (weed kill ratio 5% or less (practically no effect)) | B (bulrush) weedkilling efficacy grade (bulrush [30]): 5 (weed kill ratio 90% or more, (practically complete withering)) | E (green foxtail) weedkilling efficacy grade (green foxtail [31]): 5 (weed kill ratio 90% or more, (practically complete withering)) | I (Italian ryegrass) weedkilling efficacy grade (Italian ryegrass [32]): 4 (weed kill ratio 70% or more, less than 90%) | d (soybean) effect on crop grade (soybean [33]): 4 (weed kill ratio 70% or more, less than 90%) | f (beet) effect on crop grade (beet [34]): 3 (weed kill ratio 40% or more, less than 70%) | E (green foxtail) weedkilling efficacy grade (green foxtail [35]): 5 (weed kill ratio 90% or more, (practically complete withering)) | b (directly sown rice) effect on crop grade (directly sown rice [36]): 2 (weed kill ratio 20% or more, less than 40%) | F (barnyard grass) weedkilling efficacy grade (barnyard grass [37]): 4 (weed kill ratio 70% or more, less than 90%) | H (black-grass) weedkilling efficacy grade (black-grass [38]): 4 (weed kill ratio 70% or more, less than 90%)
